In patent publication US6121269A, “Reduction of hair growth” (priority 1999, dated 2000):
Read-outs that look alike come from different tables or passages of the source.

Experiments:
human hair follicles = experiment: Human Hair Follicle Growth Assay; assay type: cell-based
Description: Human hair follicles in growth phase (anagen) were isolated from face-lift tissue under a dissecting scope using a scalpel and watchmakers forceps. The skin was sliced into thin strips exposing 2-3 rows of follicles that could readily be dissected. […] Hair follicles were videorecorded in the 24-well plates under the dissecting scope under a power of 20×. Hair follicle lengths were assessed using an image analysis software system (Computer Eyes and NIH Image). Typically, initial recordings were made on day 0 (day follicles were placed in culture), and on days 1, 4, and 7.
The effect of five protein-tyrosine kinase inhibitors on human hair follicle growth was determined by exposing the isolated follicles to the enzyme inhibitors. The hair follicle lengths were determined before and after the inhibitor treatment.
In another experiment isolated hair follicles were exposed to either 1 mM or 0.01 mM concentration of the protein-tyrosine kinase inhibitor erbstatin, and the hair growth rate was compared to control. Measurements were made at days 0, 1 and 4.

protein-tyrosine kinase = experiment: Protein-Tyrosine Kinase Assay (human skin/hair follicle extract, Calbiochem kit); assay type: biochemical; conditions: inhibitor 1 mM, human skin supernatant fraction
Description: Protein-tyrosine kinase activity was measured in human skin samples rich in hair follicles using a commercially available assay kit (Calbiochem). Human skin obtained from a local plastic surgeon as a by-product of face-lift procedures was homogenized in four volumes of the extraction buffer containing 20 mM Tris-HCL, pH7.4, 50 mM NaCl, 1 mM EDTA, 1 mM EGTA, 5 mM mercaptoethanol. The samples were centrifuged for 10 min at 16,000×g to remove the membrane/organelle fractions. The supernatant fraction was used for the tyrosine kinase assay. Adding 25 ml of the 20× concentrated solution to 475 ml of deionized water and mixing made a working solution of plate wash buffer. The kinase buffer was prepared by adding 50 ul/ml of the 2 mM ATP stock solution to 1× sample buffer without 2-mercatoethanol. (90 ul of the kinase buffer/well).For the enzyme assay, 10 ul of each sample was added to a well. 10 ul of Abl standard, as positive controls, were added to a well. The kinase reaction was started by adding 90 ul of 1× kinase buffer/well and incubated at room temp for 30 minutes. The contents of each well was washed six times with 1× wash buffer, 100 ul of PY20 antibody diluted 1:200 with 1× Sample/kinase reaction buffer (without ATP) (15 ul to 3 ml) were added and the combination incubated for 30 minutes. The test solutions were washed with wash buffer, and 100 ul of substrate solution were added to each and incubated in the dark for 6 minutes. 100 ul of stop solution were added, and the UV absorbance read at 450 nm. The increase in UV absorbance at 450 nm provided a measure of the enzyme activity.
The ability of protein-tyrosine kinase inhibitors to inhibit the skin/hair follicle enzyme activity was determined by measuring protein-tyrosine kinase activity in the presence and absence of the inhibitor. For enzyme inhibition studies, the inhibitor was added to the reaction mixture at a concentration of 1 mM following addition of the enzyme sample.

[1] = isolated human follicles, inhibitor 500 μM
[2] = isolated human follicles, inhibitor 500 μM, vs control
[3] = isolated human follicles, inhibitor 50 μM
[4] = isolated human follicles, inhibitor 250 μM

O=CN/C=C/c1cc(O)ccc1O [Erbstatin, erbstatin]
Posttreatment (Day-1) Growth (human hair follicles; 0.01 mM): 0.1 mm | Posttreatment (Day-1) Length (human hair follicles; 0.01 mM): 3.1 ± .20 mm | Posttreatment (Day-4) Growth (human hair follicles; 0.01 mM): 0.8 mm | Posttreatment (Day-4) Length (human hair follicles; 0.01 mM): 3.8 ± .29 mm | Posttreatment (Day-1) Growth (human hair follicles; 1 mM): 0.0 mm | Posttreatment (Day-1) Length (human hair follicles; 1 mM): 3.0 ± .17 mm | Posttreatment (Day-4) Growth (human hair follicles; 1 mM): 0.3 mm | Posttreatment (Day-4) Length (human hair follicles; 1 mM): 3.3 ± .15 mm | inhibition at 10 µM (human hair follicles; Homo sapiens, 24 h, 0.01 mM, day 1, vs control, read-out: Posttreatment (Day-1) Inhibition): 83% | inhibition at 1000 µM (human hair follicles; Homo sapiens, 24 h, 1 mM, day 1, vs control, read-out: Posttreatment (Day-1) Inhibition): 100% | inhibition at 10 µM (human hair follicles; Homo sapiens, 96 h, 0.01 mM, day 4, vs control, read-out: Posttreatment (Day-4) Inhibition): 11% | inhibition at 1000 µM (human hair follicles; Homo sapiens, 96 h, 1 mM, day 4, vs control, read-out: Posttreatment (Day-4) Inhibition): 67% | Hair Growth (human hair follicles; [1]): 0.3 mm | Post-treatment hair follicle length (human hair follicles; [1]): 3.9 ± .10 mm | inhibition at 500 µM (human hair follicles; [2]): 73%

CC(=O)OCOC(c1ccc2ccccc2c1)P(=O)(OCOC(C)=O)OCOC(C)=O (stereo not drawn) [HNMPA(AM)3, hydroxy-2-naphthalenylmethylphosphonic acid tris acetoxymethyl ester]
% Inhibition (protein-tyrosine kinase activity) (protein-tyrosine kinase): 66%

CO[C@H]1[C@@H](OC)C[C@H](C)[C@@H](OC)C2=CC(=O)C=C(NC(=O)/C(C)=C/C=C\[C@H](OC)[C@@H](OC(N)=O)/C(C)=C/[C@@H]1C)C2=O [Herbimycin, herbimycin A]
% Inhibition (protein-tyrosine kinase activity) (protein-tyrosine kinase): 37%

O=C(O)c1cc(N(Cc2ccccc2O)Cc2cc(O)ccc2O)ccc1O [Lavendustin A, lavendustin A]
Hair Growth (human hair follicles; [3]): 0 mm | Post-treatment hair follicle length (human hair follicles; [3]): 3.5 ± .12 mm | inhibition at 50 µM (human hair follicles; isolated human follicles, inhibitor 50 μM, vs control): 100% | % Inhibition (protein-tyrosine kinase activity) (protein-tyrosine kinase): 59%

N#CC(=Cc1ccc(O)c(O)c1)C(N)=S [Tryphostin A47, α-cyano-(3,4-dihydroxy)thiocinnamide]
% Inhibition (protein-tyrosine kinase activity) (protein-tyrosine kinase): 16%

N#CC(=Cc1ccc(O)cc1)C(N)=C(C#N)C#N [Tryphostin A48, 2-amino-4-(4'-hydroxyphenyl)-1,1,3-tricyanobuta-1,3-diene]
Hair Growth (human hair follicles; [1]): 0.1 mm | Post-treatment hair follicle length (human hair follicles; [1]): 3.3 ± .16 mm | inhibition at 500 µM (human hair follicles; [2]): 91%

COc1cc2ncnc(Nc3cccc(Cl)c3)c2cc1OC [Tryphostin AG 1478, 4-(3-Chloroanilino)-6,7-dimethoxyquinazoline]
inhibition at 250 µM (human hair follicles; Homo sapiens, read-out: % Inhibition (hair growth)): 40% | Hair Growth (human hair follicles; [4]): 0.6 mm | Post-treatment hair follicle length (human hair follicles; [4]): 3.8 ± .19 mm

COC(=O)/C=C/c1ccc(O)c(O)c1 [methyl caffeate]
Hair Growth (human hair follicles; [1]): 0.6 mm | Post-treatment hair follicle length (human hair follicles; [1]): 4.1 ± .17 mm | inhibition at 500 µM (human hair follicles; [2]): 40% | % Inhibition (protein-tyrosine kinase activity) (protein-tyrosine kinase): 100%

N-acetyl-Asp-Tyr-(2-malonyl)-Val-Pro-Met-Leu-NH2
% Inhibition (protein-tyrosine kinase activity) (protein-tyrosine kinase): 83%
